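Method: 48-hour compound exposure of cells in 96-well plates, five concentrations, linear interpolation of endpoints. At the TGI there is no net growth.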
Tests used:
Experiment in all cases: NCI-60 cell line screen, 48 h
LOX IMVI melanoma = system: LOX IMVI melanoma
BT-549 breast = system: BT-549 breast
786-0 renal = system: 786-0 renal
A498 renal = system: A498 renal
U251 CNS = system: U251 CNS
ACHN renal = system: ACHN renal
MDA-N = system: MDA-N
OVCAR-5 ovarian = system: OVCAR-5 ovarian
RPMI-8226 leukemia = system: RPMI-8226 leukemia
HT29 colon = system: HT29 colon
PC-3 prostate = system: PC-3 prostate
RXF 393 renal = system: RXF 393 renal
UACC-257 melanoma = system: UACC-257 melanoma
A549 NSCLC = system: A549 NSCLC
IGROV1 ovarian = system: IGROV1 ovarian
SNB-75 CNS = system: SNB-75 CNS
NCI/ADR-RES ovarian = system: NCI/ADR-RES ovarian
UO-31 renal = system: UO-31 renal
HL-60(TB) leukemia = system: HL-60(TB) leukemia
HS 578T breast = system: HS 578T breast
SN12C renal = system: SN12C renal
SF-268 CNS = system: SF-268 CNS
SK-OV-3 ovarian = system: SK-OV-3 ovarian
HOP-62 NSCLC = system: HOP-62 NSCLC
MCF7 breast = system: MCF7 breast
NCI-H226 lung = system: NCI-H226 lung
SK-MEL-2 melanoma = system: SK-MEL-2 melanoma
SW-620 colon = system: SW-620 colon
CCRF-CEM leukemia = system: CCRF-CEM leukemia
T-47D breast = system: T-47D breast
OVCAR-3 ovarian = system: OVCAR-3 ovarian
OVCAR-8 ovarian = system: OVCAR-8 ovarian
NCI-H460 lung = system: NCI-H460 lung
SK-MEL-28 melanoma = system: SK-MEL-28 melanoma
SF-295 CNS = system: SF-295 CNS
CAKI-1 renal = system: CAKI-1 renal
UACC-62 melanoma = system: UACC-62 melanoma
NCI-H23 lung = system: NCI-H23 lung
MDA-MB-231 breast = system: MDA-MB-231 breast
HOP-92 NSCLC = system: HOP-92 NSCLC
COLO 205 colon = system: COLO 205 colon
OVCAR-4 ovarian = system: OVCAR-4 ovarian
SK-MEL-5 melanoma = system: SK-MEL-5 melanoma
HCT-15 colon = system: HCT-15 colon
EKVX NSCLC = system: EKVX NSCLC
M14 melanoma = system: M14 melanoma
MOLT-4 leukemia = system: MOLT-4 leukemia
SF-539 CNS = system: SF-539 CNS
MALME-3M melanoma = system: MALME-3M melanoma
SNB-19 CNS = system: SNB-19 CNS
KM12 colon = system: KM12 colon
K-562 leukemia = system: K-562 leukemia
MDA-MB-435 = system: MDA-MB-435
SR leukemia = system: SR leukemia
TK-10 renal = system: TK-10 renal
DU-145 prostate = system: DU-145 prostate
HCT-116 colon = system: HCT-116 colon
NCI-H522 lung = system: NCI-H522 lung

Compound `Oc1c(CN2CCOCC2)ccc(CN2CCOCC2)c1O` has a TGI (LOX IMVI melanoma) of over 100 µM, a TGI (BT-549 breast) of over 100 µM and a TGI (786-0 renal) of over 100 µM. It also gave a TGI (A498 renal) of over 100 µM, a TGI (U251 CNS) of over 100 µM and a TGI (ACHN renal) of over 100 µM. It also gave a TGI (MDA-N) of over 100 µM, a TGI (OVCAR-5 ovarian) of over 100 µM and a TGI (RPMI-8226 leukemia) of over 100 µM. For the same compound, the TGI (HT29 colon) was over 100 µM, the TGI (PC-3 prostate) was over 100 µM and the TGI (RXF 393 renal) was over 100 µM. The TGI (UACC-257 melanoma) was 88.7 µM, the TGI (A549 NSCLC) was over 100 µM and the TGI (IGROV1 ovarian) was over 100 µM. It also gave a TGI (SNB-75 CNS) of 75.3 µM, a TGI (NCI/ADR-RES ovarian) of over 100 µM and a TGI (UO-31 renal) of 72.2 µM. It also gave a TGI (HL-60(TB) leukemia) of 27.2 µM, a TGI (HS 578T breast) of over 100 µM and a TGI (SN12C renal) of 88.4 µM. For the same compound, the TGI (SF-268 CNS) was over 100 µM, the TGI (SK-OV-3 ovarian) was over 100 µM and the TGI (HOP-62 NSCLC) was over 100 µM. It also gave a TGI (MCF7 breast) of over 100 µM, a TGI (NCI-H226 lung) of 88.9 µM and a TGI (SK-MEL-2 melanoma) of 94.6 µM. For the same compound, the TGI (SW-620 colon) was over 100 µM, the TGI (CCRF-CEM leukemia) was 12.9 µM and the TGI (T-47D breast) was over 100 µM. The TGI (OVCAR-3 ovarian) was 66.3 µM, the TGI (OVCAR-8 ovarian) was over 100 µM and the TGI (NCI-H460 lung) was 82.8 µM. It also gave a TGI (SK-MEL-28 melanoma) of over 100 µM, a TGI (SF-295 CNS) of 96.3 µM and a TGI (CAKI-1 renal) of over 100 µM. For the same compound, the TGI (UACC-62 melanoma) was 61.2 µM, the TGI (NCI-H23 lung) was over 100 µM and the TGI (MDA-MB-231 breast) was over 100 µM. The TGI (HOP-92 NSCLC) was over 100 µM, the TGI (COLO 205 colon) was over 100 µM and the TGI (OVCAR-4 ovarian) was over 100 µM. The TGI (SK-MEL-5 melanoma) was 67 µM, the TGI (HCT-15 colon) was over 100 µM and the TGI (EKVX NSCLC) was over 100 µM. The TGI (M14 melanoma) was 84 µM, the TGI (MOLT-4 leukemia) was over 100 µM and the TGI (SF-539 CNS) was over 100 µM. For the same compound, the TGI (MALME-3M melanoma) was over 100 µM, the TGI (SNB-19 CNS) was over 100 µM and the TGI (KM12 colon) was over 100 µM. It also gave a TGI (K-562 leukemia) of over 100 µM, a TGI (MDA-MB-435) of over 100 µM and a TGI (SR leukemia) of over 100 µM. The TGI (TK-10 renal) was over 100 µM, the TGI (DU-145 prostate) was 83 µM and the TGI (HCT-116 colon) was over 100 µM. For the same compound, the TGI (NCI-H522 lung) was over 100 µM.

From PubChem BioAssay (NCI)
